Measurements reported in publication PMC6709534 (Journal of the American Chemical Society, 2015).

Assays:
H. pylori [1] = details: antibiotics used in multidrug therapy and moenomycin A; cited from earlier work
H. pylori [2] = assay: H. pylori growth on 5% horse blood agar; type: cell-based, Helicobacter pylori; details: versus ∼8 ng/mL of the 10 best MTAN inhibitors

Row | fold weaker than the 10 best MTAN inhibitors (IC90 ratio) (H. pylori [2]) [fold] | SMILES | IC90 of current antibiotics against H. pylori (H. pylori [1])
1 |  | CN(C)[C@@H]1C(O)=C(C(N)=O)C(=O)[C@@]2(O)C(O)=C3C(=O)c4c(O)cccc4[C@@](C)(O)[C@H]3C[C@@H]12 [tetracycline] | 500 ng/mL
2 |  | C[C@H]1COc2c(N3CCN(C)CC3)c(F)cc3c(=O)c(C(=O)O)cn1c23 [levofloxacin] | 1000 ng/mL
3 |  | CC[C@H]1OC(=O)[C@H](C)[C@@H](O[C@H]2C[C@@](C)(OC)[C@@H](O)[C@H](C)O2)[C@H](C)[C@@H](O[C@@H]2O[C@H](C)C[C@H](N(C)C)[C@H]2O)[C@](C)(OC)C[C@@H](C)C(=O)[C@H](C)[C@@H](O)[C@]1(C)O [clarithromycin] | 8000 ng/mL
4 | 2000 | Cc1ncc([N+](=O)[O-])n1CCO [Metronidazole] | 16 000 ng/mL
5 |  | C=C(C/C=C(\C)CCC=C(C)C)CCC(C)(C)/C=C/CC/C(C)=C\CO[C@H](COP(=O)(O)O[C@H]1O[C@H](C(N)=O)[C@@](C)(O)[C@H](OC(N)=O)[C@H]1O[C@@H]1O[C@H](CO[C@@H]2O[C@H](CO)[C@@H](O)[C@H](O)[C@H]2O)[C@@H](O[C@@H]2O[C@H](C)[C@@H](O[C@@H]3O[C@H](C(=O)NC4=C(O)CCC4=O)[C@H](O)[C@H](O)[C@H]3O)[C@H](O)[C@H]2NC(C)=O)[C@H](O)[C@H]1NC(C)=O)C(=O)O [moenomycin A] | 2000 ng/mL
